From PubChem BioAssay (NCI) come the findings set out here.

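Test compounds were applied to cells in 96-well plates for 48 hours at 5 doses. The concentration for 50% growth inhibition is given as GI50. The concentration for full growth arrest is given as TGI.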

Some test systems named below: NCI-H522 lung; MCF7 breast; ACHN renal; SN12C renal; M14 melanoma; CCRF-CEM leukemia; EKVX NSCLC; COLO 205 colon; SNB-75 CNS; SW-620 colon; M19-MEL melanoma.
Holding throughout (assay): growth of human tumour cells (NCI), 48 h

As to `O=C1c2ccccc2-c2ccc(NC(=O)C3CCCCC3C(=O)O)cc21` (stereo unspecified), the TGI in the assay with NCI-H522 lung, in the assay with MCF7 breast, in the assay with ACHN renal, in the assay on SN12C renal, in the assay with M14 melanoma and in the assay with CCRF-CEM leukemia was greater than 100 µM each time. Besides, the TGI in the assay with EKVX NSCLC, in the assay with COLO 205 colon, with SNB-75 CNS and in the assay on SW-620 colon was greater than 100 µM in each case.
For the molecule `O=CNc1cccc2c3c([nH]c12)CCCCCC3`, the TGI with NCI-H522 lung, with MCF7 breast, in the assay with SN12C renal, with M19-MEL melanoma, with CCRF-CEM leukemia and with EKVX NSCLC was greater than 100 µM in each case. The TGI in the assay on COLO 205 colon, with SNB-75 CNS and in the assay with SW-620 colon was greater than 100 µM each time.
With `CC(C)(C)OC(=O)NC(Cc1ccccc1)C(=O)N[C@H]1c2ccsc2/C(=N/O)[C@H]1O` (stereo partly specified), the TGI in the assay with MCF7 breast, in the assay with SN12C renal, in the assay with M14 melanoma, in the assay on CCRF-CEM leukemia, with EKVX NSCLC and in the assay on COLO 205 colon was greater than 100 µM in each case. Also, in the assay on SW-620 colon, the TGI was greater than 100 µM.
`CCOC(=O)C1C(c2cc(OC)c(O)c(OC)c2)c2cc3c(cc2OC1(C)O)OCO3` (stereo unspecified): the TGI in the assay on ACHN renal, in the assay with SN12C renal, in the assay on M19-MEL melanoma, in the assay with M14 melanoma, with CCRF-CEM leukemia and with EKVX NSCLC was greater than 100 µM throughout. Further, the TGI with COLO 205 colon was greater than 100 µM; in the assay on SNB-75 CNS, 77.9 µM; with SW-620 colon, greater than 100 µM.
On to `C=C1C(=O)O[C@H]2C1[C@H](OC(=O)/C(C)=C\COC(C)=O)C[C@]1(CO1)[C@@H]1[C@H](O)[C@H]3O[C@@]3(C)[C@@H]12` (stereo partly specified), for which the TGI with NCI-H522 lung was 22.8 µM; in the assay with MCF7 breast it was 27.8 µM; in the assay on SN12C renal, greater than 57.1 µM; in the assay with M19-MEL melanoma, 34.4 µM; in the assay with CCRF-CEM leukemia, 54.2 µM; in the assay with EKVX NSCLC, 57.3 µM. The TGI is 21.9 µM in the assay with COLO 205 colon, greater than 96.2 µM in the assay on SNB-75 CNS and 30.8 µM with SW-620 colon.
For the molecule `Cc1cc(NS(=O)(=O)c2ccc(Nc3c4ccccc4nc4c(C(=O)NCCN(C)C)ccc(Cl)c34)cc2)no1`, the TGI in the assay on NCI-H522 lung amounted to 3.86 µM; in the assay on ACHN renal, 12.3 µM; with SN12C renal, 16.8 µM; in the assay with M19-MEL melanoma it was 16.9 µM; with M14 melanoma it was 17.6 µM; in the assay on CCRF-CEM leukemia, 10.8 µM. For the same molecule, the TGI in the assay with EKVX NSCLC stood at 21.2 µM; in the assay with COLO 205 colon, 14.9 µM; in the assay with SNB-75 CNS it was 11.9 µM; in the assay with SW-620 colon, 15.5 µM.
For `Cc1ccc2c(c1)c(=O)c1c(NCCN(C)C)ccc3nnn2c31`, the TGI in the assay on NCI-H522 lung is 17.6 µM; in the assay on ACHN renal it was 17.7 µM; in the assay with SN12C renal, greater than 42 µM; with M19-MEL melanoma, 20.8 µM; in the assay on M14 melanoma, 16.4 µM; in the assay on CCRF-CEM leukemia, 17.9 µM. The TGI in the assay on EKVX NSCLC is 23.6 µM; in the assay with COLO 205 colon, 9.72 µM; in the assay on SNB-75 CNS, 16.9 µM; in the assay on SW-620 colon, 18 µM.
As for `CCCCc1ccc2[n+](c1)C(C(=O)OCC)=PC2` (stereo unspecified), the TGI in the assay with NCI-H522 lung, in the assay on MCF7 breast, with ACHN renal, with SN12C renal, with M14 melanoma and in the assay on CCRF-CEM leukemia was greater than 100 µM in each case. Also, the TGI in the assay on EKVX NSCLC, with COLO 205 colon, in the assay with SNB-75 CNS and with SW-620 colon was greater than 100 µM throughout.
Take `COc1cc(N=Nc2cccc(S(=O)(=O)O)c2)c(C)cc1N=Nc1ccc(/C=C/c2ccc(N=[N+]([O-])c3ccc(/C=C/c4ccc(N=Nc5cc(C)c(N=Nc6cccc(S(=O)(=O)O)c6)cc5OC)cc4)c(S(=O)(=O)O)c3)cc2S(=O)(=O)O)cc1`: the TGI in the assay on NCI-H522 lung, in the assay on MCF7 breast, in the assay with SN12C renal, in the assay on M19-MEL melanoma, with CCRF-CEM leukemia and in the assay on EKVX NSCLC was greater than 100 µM in each case. The TGI with COLO 205 colon, in the assay with SNB-75 CNS and in the assay on SW-620 colon was greater than 100 µM in each case.
Take `COC(=O)C(C)N1C(=O)c2ccccc2I1OC(C)=O` (stereo unspecified): the GI50 with NCI-H522 lung was 39.8 µM; with MCF7 breast, 30.7 µM; in the assay with ACHN renal it was 30.2 µM; in the assay on SN12C renal, 31.4 µM; in the assay with CCRF-CEM leukemia, 18.1 µM; with EKVX NSCLC, greater than 100 µM. Further, the GI50 in the assay with COLO 205 colon is 14.4 µM; with SNB-75 CNS, 60.8 µM; in the assay on SW-620 colon it was 15.5 µM. Besides, the TGI in the assay with NCI-H522 lung is greater than 100 µM; with MCF7 breast it was greater than 100 µM; in the assay on ACHN renal, greater than 100 µM; with SN12C renal, greater than 100 µM; in the assay on CCRF-CEM leukemia it was 45.5 µM; with EKVX NSCLC it was greater than 100 µM. In addition, the TGI in the assay with COLO 205 colon was 35 µM; in the assay on SNB-75 CNS, greater than 100 µM; with SW-620 colon, 29.5 µM.
